# According to US20160175457A1, “OCULAR DEVICE” (DSM IP ASSETS B.V., priority 2013, published 2016):
# “Also recorded” adds a separate entry of the source. Like-named read-outs stand apart in the source and are kept apart here. No end group written: not given here.
# T1: peptide Gly-Pro-Leu-Ala-Leu-Leu-Ala-Gln (GPLALLAQ)
# T1 sequence: GPLALLAQ
# T2: hyaluronic acid-peptide-HEMA conjugate (hyaluronic acid-Leu-Leu-Leu-Ala-Ala-Gly-HEMA)
# T2 chain: LLLAAG
# T3: peptide Gly-Pro-Leu-Ala-Leu-Leu-Ala-Gln (GPLALLAQ)
# T3 chain: GPLALLAQ
# T4: peptide Leu-Leu-Leu-Ala-Ala-Gly (LLLAAG)
# T4 chain: LLLAAG
# B1: human leukocyte elastase (protein)
# chain: IVGGRRARPHAWPFMVSLQLRGGHFCGATLIAPNFVMSAAHCVANVNVRAVRVVLGAHNLSRREPTRQVFAVQRIFENGYDPVNLLNDIVILQLNGSATINANVQVAQLPAQGRRLGNGVQCLAMGWGLLGRNRGIASVLQELNVTVVTSLCRRSNVCTLVRGRQAGVCFGDSGSPLVCNGLIHGIASFVRGGCASGLYPDAFAPVAQFVNWIDSIIQ
# Tests used:
# [1] = tested on: T1, peptide Gly-Pro-Leu-Ala-Leu-Leu-Ala-Gln (GPLALLAQ)
# human leukocyte elastase = assay: Incubation of synthetic peptides with human leukocyte elastase, mass spectrometry; format: biochemical
# Experimental: (§1) Stock solutions (1 mg/ml in 5% acetonitrile) were prepared from the synthetic peptide substrates. The stock solutions are optionally 10× diluted with MilliQ water prior to incubation. Elastase (Sigma #: E7885), Tryptase (Sigma #: T7063), or tear fluid were added to the diluted substrate solutions and incubation was performed at 25° C. Aliquots of 20 μl were taken at several time points to monitor substrate degradation.
# (§2) The aliquots were 10× diluted in 50% acetonitrile, 0.1% formic acid prior to analysis. Mass Spectrometric (MS) analysis was performed by infusion in the LTQ-Orbitrap Fourier Transform Mass Spectrometer (Thermo Fisher, Bremen, Germany). Infusion was performed by mixing 10 μl min^−1 of sample in a 200 μl min^−1 flow of 50% acetonitrile, 0.1% formic acid. The MS analysis was performed in the Orbitrap scanning at 7500 resolution using 200-1600 m/z mass range. Proteolytic activity during the different incubations of the synthetic peptides substrates was studied by manual inspection of the MS data using the Qual browser in the XCalibur software (Thermo Fisher, Bremen, Germany).
# (§3) After its purification, the peptide was incubated with contact lens rinsing liquid (cf. Example 1) of a single individual and incubated over the weekend at 25° C. Then samples of the incubation liquid were subjected to mass spectrometry to confirm cleavage. […]
# [2] = tested on: proteinases present in tear fluid (contact lens rinsing liquid); assay: Incubation of synthetic peptides with tear fluid / contact lens rinsing liquid, cleavage followed by mass spectrometry; format: biochemical, human; conditions: for endoproteolytic cleavage after Arg or Val by tear fluid / proteolytic cleavage observed after incubation with tear fluid (rinsing fluid): 162 hours (FIG. 2) / 165 hours at 25 degrees C.
# Experimental: as §1, §2
# Contact lens wearing subjects were invited to participate at the end of their working day. Using sterilized gloves, lenses were removed and the inner surface of each lens was rinsed with 250 microliter of sterilized water. Then 100 microliter samples of the rinsing liquid were incubated overnight at 25 degrees C. with 100 μl of a 1.0 mg/ml BODIPY TR-X casein solution (EnzChek Protease Assay kit ‘Red fluorescence’; Molecular Probes, Eugene, Oreg., USA). Throughout the incubation the fluorescence of the samples was measured every minute (kinetic measurement) according to the EnzChek kit protocol (excitation=590±10 nm, emission=645±20 nm) using a Tecan Infinite M1000 microtiterplate reader (Männedorf, Switzerland).
# After its purification, the peptide was incubated with contact lens rinsing liquid (cf. Example 1) of a single individual and incubated over the weekend at 25° C. Then samples of the incubation liquid were subjected to mass spectrometry to confirm cleavage. […] An incubation of the peptide with human leukocyte elastase (Sigma Aldrich) yielded GPLALL and AQ as the major cleavage products. An incubation of the peptide with human lung tryptase (also from Sigma Aldrich) yielded GPLAL/LAQ as the major cleavage products (see FIG. 1). The latter observations indicate that a peptide incorporating aliphatic hydrophobic residues like Ala and Leu support cleavage by human, tryptase- and elastase-like enzymes.
# In this Example we test the cleavage activity of tear fluid on two, slightly different synthetic peptides. The first peptide comprises Arg as a charged, basic residue (Ala-Ala-Pro-Arg-Ala-Ala-Arg-Gln, AAPRAARQ (SEQ ID NO: 4)) in order to facilitate cleavage by trypsin-like endoproteases. The second peptide comprises the medium sized aliphatic hydrophobic residue Val instead of Arg (Ala-Ala-Pro-Val-Ala-Ala-Arg-Gln, AAPVAARQ (SEQ ID NO: 5)) in order to facilitate cleavage by elastase-like endoproteases. The experiment was executed essentially as described in Example 2, but in this case tear fluid of four different individuals was obtained and incubated for 165 hours at 25 degrees C. Samples of the incubation liquid were again subjected to mass spectrometry.
# human lung tryptase = assay: Incubation of synthetic peptide with human lung tryptase, mass spectrometry; format: biochemical; conditions: 25° C., overnight (FIG. 1)
# Experimental: as §1, §2, §3
# [3] = tested on: proteinases in contact lens rinsing liquid (tear fluid); assay: Incubation of hyaluronic acid-peptide-HEMA conjugate with lyophilized contact lens rinsing liquid, LC-MS of peptide-HEMA fragments; format: biochemical, human; conditions: 35 hours at 35° C., rinsing liquid of five individuals (hard and soft lenses)
# Description: (§4) To cope with this experimental difficulty, we decided to focus on the identification of Peptide-HEMA fragments that can be expected to be released from the hyaluronic acid-peptide-HEMA conjugate upon exposure to a suitable proteolytic activity. On the basis of peptide hydrolysis data gathered in Examples 2 and 5, peptide Leu-Leu-Leu-Ala-Ala-Gly (LLLAAG) was synthesized and used to prepare a hyaluronic acid-peptide-HEMA conjugate (Example 6).
# Rinsing liquid was collected from 5 individuals, two wearing hard lenses and three wearing soft lenses, at the end of the working day over multiple days. The lenses were collected using sterile nitrile gloves and rinsed with 200 μl MilliQ water on a flat glass microscope slide (Thermo Scientific) containing Grace Bio-labs Press-to-Seal silicone isolator, No PSA (Sigma Aldrich GBL664504-25EA). The rinse liquid was transferred to a Protein LoBind Tube 2.0 ml (Eppendorf) using Maxymum Recovery pipette tips (Axygen scientific). The rinse liquid was frozen at −80° C. as soon as possible. Rinsing fluid was lyophilized overnight when >1.5 ml rinsing liquid was collected for each individual.
# Hyaluronic acid-peptide-HEMA conjugates are too heterologous in mass to be directly detected by MS. […]
# The conjugate (Example 6) was dissolved in 50 mM ammonium acetate buffer at 0.2 mg/ml and analyzed by 25 μl injections on the LC-MS system. […]
# human elastase = assay: Incubation of hyaluronic acid-peptide-HEMA conjugate with human elastase preparation, LC-MS; format: biochemical; conditions: 35° C., data not shown
# Experimental: as §4
# The conjugate (Example 6) was dissolved in 50 mM ammonium acetate buffer at 0.2 mg/ml and analyzed by 25 μl injections on the LC-MS system. The LC-MS system consisted of an Accela UHPLC (Thermo Fisher, Bremen, Germany) coupled to the LTQ-Orbitrap Fourier Transform Mass Spectrometer. The column used was a ZORBAX Rapid Resolution HT SB-C18, 2.1×50 mm, 1.8 μm (Agilent 827700-902). The autosampler was set to 35° C. for incubation of the samples and the column oven was set to 50° C. The analytes in the samples were separated using a flow of 0.8 ml min^−1 and the following gradient was used: […]
# 0-0.2 min 2.5% B, 0.2-2 min 2.5-30% B, 2-2.5 min 30-80% B, 2.5-3 min 80% B, 3.01-5 min 2.5% B, where buffer A is 0.1% Formic Acid in Water (Biosolve, LC-MS grade) and buffer B is 0.1% Formic Acid in Acetonitrile (Biosolve, LC-MS grade). The MS was scanning at 7500 resolution m/z 150-800. […]
# [4] = target: T2, hyaluronic acid-peptide-HEMA conjugate …
# [5] = target: T3, peptide Gly-Pro-Leu-Ala-Leu-Leu-Ala-Gln …
# [6] = target: T4, peptide Leu-Leu-Leu-Ala-Ala-Gly (LLLAAG)
molecule,measurement,setting,value
human lung tryptase,peptide cleavage products by mass spectrometry,[1],yielded GPLAL/LAQ as the major cleavage products
LLLAAG,conversion of intact peptide by elastase (digestion pattern),"human leukocyte elastase; overnight at room temperature, 50 mM ammonium acetate buffer",converted to fragment Leu-Leu-Leu-Ala (LLLA); also recorded: completely converted to LLLA
"GPLALLAQ (peptide sequence cleavable by proteinases present in tear fluid) [Gly-Pro-Leu-Ala-Leu-Leu-Ala-Gln, linker test peptide cleavable by tear fluid proteinases]",cleavage products identified after incubation with contact lens rinsing liquid (tear fluid),"[2]; rinsing liquid of a single individual, over the weekend at 25° C.","GPLAL and LAQ, GPL and ALLAQ and GPLA and LLAQ"
same,major cleavage products after incubation with human leukocyte elastase,"human leukocyte elastase; 25° C., 30 minutes (FIG. 1)",GPLALL and AQ
same,major cleavage products after incubation with human lung tryptase,human lung tryptase,GPLAL/LAQ
"AAPVAARQ (peptide sequence cleavable by proteinases present in tear fluid) [Ala-Ala-Pro-Val-Ala-Ala-Arg-Gln, synthetic test peptide comprising Val instead of Arg]",endoproteolytic cleavage after Arg or Val by tear fluid,[2],Cleavage C-terminal of Val does not occur
same,proteolytic cleavage observed after incubation with tear fluid (rinsing fluid),[2],hydrolysis of the peptide bond between Pro and Val
"AAPRAARQ (peptide sequence cleavable by proteinases present in tear fluid) [Ala-Ala-Pro-Arg-Ala-Ala-Arg-Gln, synthetic test peptide comprising Arg as a charged, basic residue]",endoproteolytic cleavage after Arg or Val by tear fluid,[2],Hydrolysis of peptide bonds involving Arg (R) is not observed
same,proteolytic cleavage observed after incubation with tear fluid (rinsing fluid),[2],only showing cleavage at the N-terminal Ala
"hyaluronic acid-peptide-HEMA conjugate: conjugate of hyaluronic acid with NH2-Leu-Leu-Leu-Ala-Ala-Gly hexapeptide and HEMA (hydroxyethyl methacrylate) (LLLAAG; not fully specified (N-terminus, C-terminus); printed as Leu-Leu-Leu-Ala-Ala-Gly; also: conjugate with hyaluronic acid and HEMA, attachment not given here)",peptide-HEMA fragments formed upon incubation with concentrated (lyophilized) contact lens rinsing liquid,[3],formation of various peptide-HEMA fragments; also recorded: is able to cleave the peptide of the hyaluronic acid-peptide-HEMA conjugate; also recorded: LAAG-HEMA
same,peptide-HEMA fragments formed upon incubation with elastase,human elastase,formation of the expected AG-HEMA fragment
B1,peptide-HEMA fragments by LC-MS,[4],showed the formation of the expected AG-HEMA fragment
same,peptide cleavage products by mass spectrometry,[5],yielded GPLALL and AQ as the major cleavage products
same,peptide cleavage products by mass spectrometry,[6],precursor peptide Leu-Leu-Leu-Ala-Ala-Gly (LLLAAG) was converted to fragment Leu-Leu-Leu-Ala (LLLA)
